Among the data in patent US7098340B2, “Benzyl sulfonamide derivatives” (Warner Lambert Company LLC, priority 2003, dated 2006) are IC50 values, retold here.

This experiment concerns the target T1, androgen receptor (Homo sapiens, UniProt P10275).
T1 sequence (P10275 1-920 Q868H): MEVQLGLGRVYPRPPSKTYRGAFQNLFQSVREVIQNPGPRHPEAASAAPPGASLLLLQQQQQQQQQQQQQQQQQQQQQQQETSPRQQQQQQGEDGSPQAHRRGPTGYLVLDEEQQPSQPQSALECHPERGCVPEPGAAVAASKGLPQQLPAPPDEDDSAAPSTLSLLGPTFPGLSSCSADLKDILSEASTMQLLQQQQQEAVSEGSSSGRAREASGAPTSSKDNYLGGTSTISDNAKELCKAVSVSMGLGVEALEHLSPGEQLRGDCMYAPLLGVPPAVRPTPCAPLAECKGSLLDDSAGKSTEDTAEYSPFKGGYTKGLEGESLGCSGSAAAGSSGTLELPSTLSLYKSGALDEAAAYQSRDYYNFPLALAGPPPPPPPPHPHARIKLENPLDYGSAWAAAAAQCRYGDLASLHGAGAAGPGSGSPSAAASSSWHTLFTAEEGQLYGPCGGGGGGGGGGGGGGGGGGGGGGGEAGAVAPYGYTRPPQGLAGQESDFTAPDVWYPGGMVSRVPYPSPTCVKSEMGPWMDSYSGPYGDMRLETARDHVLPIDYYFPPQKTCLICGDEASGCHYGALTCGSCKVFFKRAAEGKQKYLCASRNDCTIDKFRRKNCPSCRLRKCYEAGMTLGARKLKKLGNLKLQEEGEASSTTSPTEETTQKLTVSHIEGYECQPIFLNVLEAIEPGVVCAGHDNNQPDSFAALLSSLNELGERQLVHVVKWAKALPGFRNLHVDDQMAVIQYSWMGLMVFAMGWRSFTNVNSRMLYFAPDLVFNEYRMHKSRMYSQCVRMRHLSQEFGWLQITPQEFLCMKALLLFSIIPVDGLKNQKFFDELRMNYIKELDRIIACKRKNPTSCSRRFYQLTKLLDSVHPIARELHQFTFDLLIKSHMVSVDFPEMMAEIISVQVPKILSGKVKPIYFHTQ
Briefly: AR Antagonist Cell Assay (MMTV-luciferase reporter, DHT-stimulated). The experiment is classed as cell-based. To be noted: MDA-MB453-MMTV clone 54-19 cells; antagonism of 100 pM DHT, 17 hr, luciferase readout. Here is the method:
The compounds ability to antagonize the effects of androgen on the androgen receptor were determined in the protocol described immediately below.
Experimental Procedure for AR Antagonist Cell Assay
Cell line: MDA-MB453-MMTV clone 54–19. This cell line is a stable transfected cell line with MDA-MB453 cell background (human breast tumor cell expressing high level of androgen receptor). A MMTV minimal promoter containing ARE was first cloned in front of a firefly luciferase reporter gene. Then the cascade was cloned into transfection vector pUV120puro. Electroporation method was used for transfecting MDA-MB-453 cell. Puromycin resistant stable cell line was selected.
Cell Culture Media and Reagents:
Culture medium: DMEM (high glucose, Gibco cat #: 11960-044), 10% FBS, and 1% L-glutamine
Plating medium: DMEM (phenol red free), 10% charcoal treated HyClone serum, 1% L-glutamine
Assay medium: DMEM (phenol red free), 1% charcoal treated HyClone serum, 1% L-glutamine, and 1% penicillin/streptomycin
3× luciferase buffer: 2% beta-mercaptoethanol, 0.6% ATP, 0.0135% luciferine in cell lysis buffer
• 1. Cells are maintained in culture medium, splitting cells when they reach 80–90% confluence • 2. To test compounds, 10,000 cells/well are plated to opaque 96 cell culture plate in 100 ul/well plating medium, culture for overnight at 37° C. in cell culture incubator • 3. Carefully remove plating medium, then add 80 ul/well of pre-warmed assay medium, add 10 ul/well testing compound (final concentration at 10 uM or 1 uM), incubate at 37° C. for 30 minutes • 4. Add 10 ul/well freshly prepared DHT (final concentration at 100 pM) to each well, incubate at 37° C. for 17 hr (overnight) • 5. Add 50 ul/well 3× luciferase buffer, incubate at room temperature for 5 minutes, then count on Luminometer.
The fold induction over background by 100 pM DHT in the absence of testing compounds is standardized as 100% and experimental result is expressed as percentage of inhibition by testing compounds.

Usually IC50 stands for the concentration that gives 50% inhibition. A high value points to lower potency. On to `Cc1ccc(F)c(CNS(=O)(=O)c2ccc(Cc3ccc4oc(=O)cc(C(F)(F)F)c4c3)cc2)c1Cl` [Example 200, N-(2-Chloro-6-fluoro-3-methylbenzyl)-4-(2-oxo-4-trifluoromethyl-2H-chromen-6-ylmethyl)benzenesulfonamide], for which the IC50 came to 6.91 µM.
Next, `CSc1n[nH]c(NS(=O)(=O)c2ccc(Cc3ccc4[nH]c(=O)cc(C(F)(F)F)c4c3)cc2)c1C#N` [Example 32, N-(4-Cyano-5-methylsulfanyl-2H-pyrazol-3-yl)-4-(2-oxo-4-trifluoromethyl-1,2-dihydroquinolin-6-ylmethyl)-benzenesulfonamide]: 8.02 µM; `CC(=O)c1cccc(NS(=O)(=O)c2ccc(Cc3ccc4oc(=O)cc(C(F)(F)F)c4c3)cc2)c1` [Example 129, N-(3-Acetylphenyl)-4-(2-oxo-4-trifluoromethyl-2H-chromen-6-ylmethyl)benzenesuifonamide]: 2.16 µM.
In the case of `CCN(Cc1ccncc1)S(=O)(=O)c1ccc(Cc2ccc3oc(=O)cc(C(F)(F)F)c3c2)cc1` [Example 98, N-Ethyl-4-(2-oxo-4-trifluoromethyl-2H-chromen-6-ylmethyl)-N-pyridin-4-ylmethyl-benzenesulfonamide], the IC50 is 2.43 µM.
The same measure for `Cc1ccc(F)cc1CNS(=O)(=O)c1ccc(Cc2ccc3[nH]c(=O)cc(C(F)(F)F)c3c2)cc1` [Example 67, N-(5-Fluoro-2-methylbenzyl)-4-(2-oxo-4-trifluoromethyl-1,2-dihydroquinolin-6-ylmethyl)-benzenesulfonamide]: 8.23 µM.
Compound `Cc1ccc(-c2ccccc2)cc1NS(=O)(=O)c1ccc(Cc2ccc3oc(=O)cc(C(F)(F)F)c3c2)cc1` [Example 132, N-(4-Methylbiphenyl-3-yl)-4-(2-oxo-4-trifluoromethyl-2H-chromen-6-ylmethyl)-benzenesulfonamide] yielded an IC50 of 8.13 µM.
On to `O=C1CCCN1CCCNS(=O)(=O)c1ccc(Cc2ccc3[nH]c(=O)cc(C(F)(F)F)c3c2)cc1` [Example 68, N-[3-(2-Oxopyrrolidin-1-yl)propyl]-4-(2-oxo-4-trifluoromethyl-1,2-dihydroquinolin-6-ylmethyl)-benzenesulfonamide], for which 7.62 µM corresponded to half-maximal inhibition (IC50).
Next, `O=c1cc(C(F)(F)F)c2cc(Cc3ccc(S(=O)(=O)Nc4cccc(OC(F)F)c4)cc3)ccc2o1` [Example 143, N-(3-Difluoromethoxyphenyl)-4-(2-oxo-4-trifluoromethyl-2H-chromen-6-ylmethyl)-benzenesulfonamide]: 2.81 µM; `CCN(Cc1ccncc1)S(=O)(=O)c1ccc(Cc2ccc3[nH]c(=O)cc(C(F)(F)F)c3c2)cc1` [Example 5, N-Ethyl-4-(2-oxo-4-trifluoromethyl-1,2-dihydroquinolin-6-ylmethyl)-N-pyridin-4-ylmethylbenzenesulfonamide]: greater than 10 µM.
Consider `O=c1cc(C(F)(F)F)c2cc(Cc3ccc(S(=O)(=O)Nc4cc5ccccc5cn4)cc3)ccc2[nH]1` [Example 27, N-Isoquinolin-3-yl-4-(2-oxo-4-trifluoromethyl-1,2-dihydroquinolin-6-ylmethyl)-benzenesulfonamide], for which the IC50 is greater than 10 µM.
The same measure for `CCOC(=O)CC(NS(=O)(=O)c1ccc(Cc2ccc3[nH]c(=O)cc(C(F)(F)F)c3c2)cc1)c1ccccc1` (stereo not drawn) [Example 91, 3-[4-(2-Oxo-4-trifiuoromethyl-1,2-dihydroquinolin-6-ylmethyl)-benzenesulfonylamino]-3-phenylpropionic acid ethyl ester]: greater than 10 µM.
As to `O=c1cc(C(F)(F)F)c2cc(Cc3ccc(S(=O)(=O)Nc4cccc(C(F)(F)F)c4)cc3)ccc2[nH]1` [Example 39, 4-(2-Oxo-4-trifluoromethyl-1,2-dihydroquinolin-6-ylmethyl)-N-(3-trifluoromethylphenyl)-benzenesulfonamide], the IC50 was greater than 10 µM.
The same measure for `O=c1cc(C(F)(F)F)c2cc(Cc3ccc(S(=O)(=O)Nc4ccc5c(c4)OCO5)cc3)ccc2o1` [Example 131, N-Benzo[1,3]dioxol-5-yl-4-(2-oxo-4-trifluoromethyl-2H-chromen-6-ylmethyl)-benzenesulfonamide]: 2.4 µM; for `Cc1cccc(CNS(=O)(=O)c2ccc(Cc3ccc4[nH]c(=O)cc(C(F)(F)F)c4c3)cc2)c1` [Example 58, N-(3-Methylbenzyl)-4-(2-oxo-4-trifluoromethyl-1,2-dihydroquinolin-6-ylmethyl)-benzenesulfonamide]: greater than 10 µM.
Next, `CSc1n[nH]c(NS(=O)(=O)c2ccc(Cc3ccc4oc(=O)cc(C(F)(F)F)c4c3)cc2)c1C#N` [Example 138, N-(4-Cyano-5-methylsulfanyl-2H-pyrazol-3-yl)-4-(2-oxo-4-trifluoromethyl-2H-chromen-6-ylmethyl)benzenesulfonamide]: 1.9 µM; `O=c1cc(C(F)(F)F)c2cc(Cc3ccc(S(=O)(=O)NCC4CCCCC4)cc3)ccc2o1` [Example 165, N-Cyclohexylmethyl-4-(2-oxo-4-trifluoromethyl-2H-chromen-6-ylmethyl)benzene-sulfonamide]: roughly 10 µM; `CN(CCc1ccccn1)S(=O)(=O)c1ccc(Cc2ccc3oc(=O)cc(C(F)(F)F)c3c2)cc1` [Example 111, N-Methyl-4-(2-oxo-4-trifluoromethyl-2H-chromen-6-ylmethyl)-N-(2-pyridin-2-ylethyl)benzenesulfonamide]: 4.78 µM.
The same measure for `O=c1cc(C(F)(F)F)c2cc(Cc3ccc(S(=O)(=O)NC4CCCC4)cc3)ccc2o1` [Example 158, N-Cyclopentyl-4-(2-oxo-4-trifluoromethyl-2H-chromen-6-ylmethyl)benzenesulfonamide]: 6.5 µM; for `COc1ccc(OC)c(NS(=O)(=O)c2ccc(Cc3ccc4[nH]c(=O)cc(C(F)(F)F)c4c3)cc2)c1` [Example 33, N-(2,5-Dimethoxyphenyl)-4-(2-oxo-4-trifluoromethyl-1,2-dihydroquinolin-6-ylmethyl)-benzenesulfonamide]: greater than 10 µM.
`O=c1cc(C(F)(F)F)c2cc(Cc3ccc(S(=O)(=O)Nc4cc(-c5ccccc5)n[nH]4)cc3)ccc2[nH]1` [Example 37, 4-(2-Oxo-4-trifluoromethyl-1,2-dihydroquinolin-6-ylmethyl)-N-(5-phenyl-2H-pyrazol-3-yl)-benzenesulfonamide]: the IC50 was greater than 10 µM.
The same measure for `C[C@H](NS(=O)(=O)c1ccc(Cc2ccc3oc(=O)cc(C(F)(F)F)c3c2)cc1)c1ccccc1` [Example 172, 4-(2-Oxo-4-trifluoromethyl-2H-chromen-6-ylmethyl)-N-(1-phenylethyl)-benzenesulfonamide]: 4.66 µM.
Compound `O=c1cc(C(F)(F)F)c2cc(Cc3ccc(S(=O)(=O)Nc4cc(F)c(F)c(F)c4)cc3)ccc2[nH]1` [Example 35, 4-(2-Oxo-4-trifluoromethyl-1,2-dihydroquinolin-6-ylmethyl)-N-(3,4,5-trifluorophenyl)-benzenesulfonamide] came in with an IC50 greater than 10 µM.
Next, `O=c1cc(C(F)(F)F)c2cc(Cc3ccc(S(=O)(=O)NCCOc4ccccc4)cc3)ccc2o1` [Example 181, 4-(2-Oxo-4-trifluoromethyl-2H-chromen-6-ylmethyl)-N-(2-phenoxyethyl)-benzenesulfonamide]: 6.96 µM; `CC(C)(C)c1cc(NS(=O)(=O)c2ccc(Cc3ccc4oc(=O)cc(C(F)(F)F)c4c3)cc2)cc(C(C)(C)C)c1` [Example 153, N-(3,5-Di-tert-butylphenyl)-4-(2-oxo-4-trifluoromethyl-2H-chromen-6-ylmethyl)-benzenesulfonamide]: greater than 10 µM.
